This is an account of results in patent publication US12325697B2 (Nimbus Clio, Inc., priority 2021, dated 2025).

pIC50: −log10 of the molar value. Bounds are passed on as bounds.

Assay [1] has as its target Recombinant human Cbl-b (aa 36-427) (Homo sapiens (Human), UniProt Q13191). Description: Cbl-b Biochemical Assay (TR-FRET). The settings on record: read-out: TR-FRET hCbl-b IC50. An outline of the steps: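 IC50 from 4-parameter fit of % inhibition (DMSO max, reference-inhibitor min), duplicate ten-point series. Compound preincubated with 6 nM Cbl-b, then Src-Zap70 (1-2.5 nM)/0.5 mM ATP reaction 60 min RT; EDTA quench with labelled UBE2D2-Ub and streptavidin-terbium, 60 min, HTRF at 520 nm.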

For assay [2], the target named is Recombinant human c-Cbl (aa 47-435) (Homo sapiens (Human), UniProt P22681). Description: c-Cbl Biochemical Assay (TR-FRET). Put shortly:
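TR-FRET binding of UBE2D2-Ub-Bodipy (100 nM) to biotinylated c-Cbl (aa 47-435, 6 nM) via Streptavidin-Tb, measured after c-Cbl activation by Src-Zap70 with 0.5 mM ATP (60-90 min RT, 30 min compound preincubation). Ten-point half-log dilutions, 1% DMSO; IC50 by 4-parameter fit of normalized inhibition.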
For orientation: TR-FRET usually uses a lanthanide donor and a delayed reading to cut background.

Chain of Recombinant human c-Cbl (aa 47-435) (P22681 47-435): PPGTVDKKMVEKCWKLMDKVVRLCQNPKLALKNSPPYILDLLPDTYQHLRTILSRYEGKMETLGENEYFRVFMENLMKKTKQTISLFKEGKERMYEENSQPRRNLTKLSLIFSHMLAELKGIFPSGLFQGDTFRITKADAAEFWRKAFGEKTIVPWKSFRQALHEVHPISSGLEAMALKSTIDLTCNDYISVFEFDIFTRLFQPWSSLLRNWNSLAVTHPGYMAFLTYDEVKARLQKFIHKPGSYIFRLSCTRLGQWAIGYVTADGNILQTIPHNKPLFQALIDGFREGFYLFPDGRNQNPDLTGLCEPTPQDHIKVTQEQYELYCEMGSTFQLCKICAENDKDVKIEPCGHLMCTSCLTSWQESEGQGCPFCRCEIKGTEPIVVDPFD
Chain of Recombinant human Cbl-b (aa 36-427) (Q13191 36-427): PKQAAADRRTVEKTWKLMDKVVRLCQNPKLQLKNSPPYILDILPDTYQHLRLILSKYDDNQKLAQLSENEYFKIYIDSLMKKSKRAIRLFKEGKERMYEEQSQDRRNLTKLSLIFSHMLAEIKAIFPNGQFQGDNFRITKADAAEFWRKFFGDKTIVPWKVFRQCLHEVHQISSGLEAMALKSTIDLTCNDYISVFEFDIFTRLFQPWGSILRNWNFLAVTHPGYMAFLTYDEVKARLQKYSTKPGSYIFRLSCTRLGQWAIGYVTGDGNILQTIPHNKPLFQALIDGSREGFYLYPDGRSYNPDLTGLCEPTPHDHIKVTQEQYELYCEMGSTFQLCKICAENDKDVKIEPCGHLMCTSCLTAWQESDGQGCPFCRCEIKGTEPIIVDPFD

Turning to `Cn1cnnc1-c1cc(C#N)ccc1-c1cc(C2CC2)nc(N2Cc3c(F)cc(CN4CC[C@H]5OCC[C@H]54)cc3C2=O)c1` (stereo in doubt) [ANF-11, 4-[2-Cyclopropyl-6-(4-fluoro-6-{hexahydrofuro[3,2-b]pyrrol-4-ylmethyl}-1-oxo-3H-isoindol-2-yl)pyridin-4-yl]-3-(4-methyl-1,2,4-triazol-3-yl)benzonitrile], the pIC50 in assay [1] and in assay [2] was ≥ 6.70 each time.
With `CC(NCC1CCC1)c1ccc2c(c1)C(=O)N(c1cc(-c3ccc(C#N)cc3-c3nncn3C)cc(C3CC3)n1)C2` (centres unmarked) [AJZ-1, 4-(2-(6-(1-((Cyclobutylmethyl)amino)ethyl)-1-oxoisoindolin-2-yl)-6-cyclopropylpyridin-4-yl)-3-(4-methyl-4H-1,2,4-triazol-3-yl)benzonitrile], the pIC50 in assay [1] and in assay [2] was ≥ 6.70 in each case.
As to `CNCCOCc1ccc2c(c1)C(=O)N(c1cc(-c3ccc(C#N)cc3-c3nncn3C)cc(C3CC3)n1)C2` [AIY-2, 4-[2-Cyclopropyl-6-(6-{[2-(methylamino)ethoxy]methyl}-1-oxo-3H-isoindol-2-yl)pyridin-4-yl]-3-(4-methyl-1,2,4-triazol-3-yl)benzonitrile], the pIC50 in assay [1] and in assay [2] was ≥ 6.70 throughout.
For `C[C@H](c1ccc2c(c1)C(=O)N(c1cc(-c3ccc(C#N)cc3-c3nncn3C)cc(C3CC3)n1)C2)N1CC2(COC2)C1` [AOE-1, 4-(2-Cyclopropyl-6-{6-[(1R)-1-{2-oxa-6-azaspiro[3.3]heptan-6-yl}ethyl]-1-oxo-3H-isoindol-2-yl}pyridin-4-yl)-3-(4-methyl-1,2,4-triazol-3-yl)benzonitrile], the pIC50 in assay [1] and in assay [2] was ≥ 6.70 each time.
For the compound `Cn1cnnc1-c1cc(C#N)ccc1-c1cc(C2CC2)nc(N2Cc3c(F)cc(CN4CC[C@@H]5COC[C@H]54)cc3C2=O)c1` [AOU-1, 4-(2-Cyclopropyl-6-(4-fluoro-6-(((3aS,6aS)-hexahydro-1H-furo[3,4-b]pyrrol-1-yl)methyl)-1-oxoisoindolin-2-yl)pyridin-4-yl)-3-(4-methyl-4H-1,2,4-triazol-3-yl)benzonitrile], the pIC50 in assay [1] and in assay [2] was ≥ 6.70 throughout.
With `CCNc1cnc(N2Cc3c(cc(CO)cc3C(F)(F)F)C2=O)cc1-c1ccc(F)cc1-c1nncn1C` [AHN-9, 2-(5-(Ethylamino)-4-(4-fluoro-2-(4-methyl-4H-1,2,4-triazol-3-yl)phenyl)pyridin-2-yl)-6-(hydroxymethyl)-4-(trifluoromethyl)isoindolin-1-one], the pIC50 in assay [1] and in assay [2] was 4.30 to 5.00 in each case.
Turning to `Cn1cnnc1-c1cc(C#N)ccc1-c1cc(C2CC2)nc(N2Cc3c(F)cc(CN4CC5(COC5)C4)cc3C2=O)c1` [AMS-2, 4-[2-Cyclopropyl-6-(4-fluoro-6-{2-oxa-6-azaspiro [3.3]heptan-6-ylmethyl}-1-oxo-3H-isoindol-2-yl)pyridin-4-yl]-3-(4-methyl-1,2,4-triazol-3-yl)benzonitrile], the pIC50 in assay [1] and in assay [2] was ≥ 6.70 each time.
As for `COC(C)(C)CNCc1ccc2c(c1)C(=O)N(c1cc(-c3ccc(C#N)cc3-c3nncn3C)cc(C3CC3)n1)C2` [AIW-2, 4-[2-Cyclopropyl-6-(6-{[(2-methoxy-2-methylpropyl)amino]methyl}-1-oxo-3H-isoindol-2-yl)pyridin-4-yl]-3-(4-methyl-1,2,4-triazol-3-yl)benzonitrile], the pIC50 in assay [1] and in assay [2] was ≥ 6.70 each time.
`Cn1cnnc1-c1cc(C#N)ccc1-c1cc(C2CC2)nc(N2Cc3ccc([C@H]4COC[C@@H](C5CCC5)N4)cc3C2=O)c1` (stereo in doubt) [AOP-4, rac-4-(2-{6-[(3R,5S)-5-Cyclobutylmorpholin-3-yl]-1-oxo-3H-isoindol-2-yl}-6-cyclopropylpyridin-4-yl)-3-(4-methyl-1,2,4-triazol-3-yl)benzonitrile]: the pIC50 in assay [1] and in assay [2] was ≥ 6.70 in each case.
As to `Cn1cnnc1-c1cc(C#N)ccc1-c1cc(C2CC2)nc(N2Cc3ccc(CNCC4(C)COC4)cc3C2=O)c1` [AMU-2, 4-{2-Cyclopropyl-6-[6-({[(3-methyloxetan-3-yl)methyl]amino}methyl)-1-oxo-3H-isoindol-2-yl]pyridin-4-yl}-3-(4-methyl-1,2,4-triazol-3-yl)benzonitrile], the pIC50 in assay [1] and in assay [2] was ≥ 6.70 each time.
Consider `Cn1cnnc1-c1cc(C#N)ccc1-c1cc(C2CC2)cc(N2Cc3ccc(CO)cc3C2=O)c1` [AJP-7, 3′-Cyclopropyl-5′-(6-(hydroxymethyl)-1-oxoisoindolin-2-yl)-2-(4-methyl-4H-1,2,4-triazol-3-yl)-[1,1′-biphenyl]-4-carbonitrile], for which the pIC50 – broadly, −log10 of the IC50, conventionally taken in molar units – in assay [1] was 6.00 to 6.70; in assay [2] it was 5.00 to 6.00.
As for `Cn1cnnc1-c1cc(C#N)ccc1-c1cc(C2CC2)cc(N2Cc3ccc(CNCC4CC4)cc3C2=O)c1` [AJR-1, 3′-Cyclopropyl-5′-(6-{[(cyclopropylmethyl)amino]methyl}-1-oxo-3H-isoindol-2-yl)-2-(4-methyl-1,2,4-triazol-3-yl)-[1,1′-biphenyl]-4-carbonitrile], the pIC50 in assay [1] and in assay [2] was ≥ 6.70 in each case.
Consider `Cn1cnnc1-c1cc(C#N)ccc1-c1cc(C2CC2)nc(N2Cc3ccc(CN[C@H]4CCOC4)cc3C2=O)c1` [ANQ-2, 4-[2-Cyclopropyl-6-(1-oxo-6-{[(3S)-oxolan-3-ylamino]methyl}-3H-isoindol-2-yl)pyridin-4-yl]-3-(4-methyl-1,2,4-triazol-3-yl)benzonitrile], for which the pIC50 in assay [1] and in assay [2] was ≥ 6.70 each time.
`COCCN(C)Cc1cc(F)c2c(c1)C(=O)N(c1cc(-c3ccc(C#N)cc3-c3nncn3C)cc(C3CC3)n1)C2` [ANT-1, 4-[2-Cyclopropyl-6-(4-fluoro-6-{[(2-methoxyethyl)(methyl)amino]methyl}-1-oxo-3H-isoindol-2-yl)pyridin-4-yl]-3-(4-methyl-1,2,4-triazol-3-yl)benzonitrile]: the pIC50 in assay [1] and in assay [2] was ≥ 6.70 each time.
On to `Cn1cnnc1-c1cc(C#N)ccc1-c1cc(C2CC2)nc(N2Cc3ccc(CNCC4COC4)cc3C2=O)c1` [AHZ-2, 4-[2-Cyclopropyl-6-(6-{1[(oxetan-3-ylmethyl)amino]methyl}-1-oxo-3H-isoindol-2-yl)pyridin-4-yl]-3-(4-methyl-1,2,4-triazol-3-yl)benzonitrile], for which the pIC50 in assay [1] and in assay [2] was ≥ 6.70 throughout.
As to `CC(=O)NCCNCc1ccc2c(c1)C(=O)N(c1cc(-c3ccc(C#N)cc3-c3nncn3C)cc(C3CC3)n1)C2` [AMB-1, N-(2-{[(2-{4-[4-Cyano-2-(4-methyl-1,2,4-triazol-3-yl)phenyl]-6-cyclopropylpyridin-2-yl}-3-oxo-1H-isoindol-5-yl)methyl]amino}ethyl)acetamide], the pIC50 in assay [1] and in assay [2] was ≥ 6.70 each time.
Turning to `Cn1cnnc1-c1cc(C#N)ccc1-c1cc(C2CC2)nc(N2Cc3c(F)cc(CN[C@@]4(C)COC[C@H]4O)cc3C2=O)c1` (stereo in doubt) [AOG-1, 4-[2-Cyclopropyl-6-(4-fluoro-6-{[(4-hydroxy-3-methyloxolan-3-yl)amino]methyl}-1-oxo-3H-isoindol-2-yl)pyridin-4-yl]-3-(4-methyl-1,2,4-triazol-3-yl)benzonitrile], the pIC50 in assay [1] and in assay [2] was ≥ 6.70 in each case.
Take `Cn1cnnc1-c1cc(C#N)ccc1-c1cc(C2CC2)nc(N2Cc3cc(Cl)c(CNCC4CCCC4)cc3C2=O)c1` [AKO-2, 4-(2-(5-Chloro-6-(((cyclopentylmethyl)amino)methyl)-1-oxoisoindolin-2-yl)-6-cyclopropylpyridin-4-yl)-3-(4-methyl-4H-1,2,4-triazol-3-yl)benzonitrile]: the pIC50 in assay [1] and in assay [2] was ≥ 6.70 each time.
`CC[C@H](O)CNCc1ccc2c(c1)C(=O)N(c1cc(-c3ccc(C#N)cc3-c3nncn3C)cc(C3CC3)n1)C2` [AJA-2, (S)-4-(2-Cyclopropyl-6-(6-(((2-hydroxybutyl)amino)methyl)-1-oxoisoindolin-2-yl)pyridin-4-yl)-3-(4-methyl-4H-1,2,4-triazol-3-yl)benzonitrile]: the pIC50 in assay [1] and in assay [2] was ≥ 6.70 throughout.
On to `CNC[C@@H](O)COc1ccc2c(c1)C(=O)N(c1cc(-c3ccc(C#N)cc3-c3nncn3C)cc(C3CC3)n1)C2` [AJV-3, 4-(2-Cyclopropyl-6-{6-[(2R)-2-hydroxy-3-(methylamino)propoxy]-1-oxo-3H-isoindol-2-yl}pyridin-4-yl)-3-(4-methyl-1,2,4-triazol-3-yl)benzonitrile], for which the pIC50 in assay [1] and in assay [2] was ≥ 6.70 throughout.
Take `Cn1cnnc1-c1cc(C#N)ccc1-c1cc(C2CC2)nc(N2Cc3ccc(O)cc3C2=O)c1` [AJL-2, 4-(2-cyclopropyl-6-(6-hydroxy-1-oxoisoindolin-2-yl)pyridin-4-yl)-3-(4-methyl-4H-1,2,4-triazol-3-yl)benzonitrile]: the pIC50 in assay [1] and in assay [2] was ≥ 6.70 in each case.
Take `C[C@@H](c1ccc2c(c1)C(=O)N(c1cc(-c3ccc(C#N)cc3-c3nncn3C)cc(C3CC3)n1)C2)N1CC2(COC2)C1` [AOD-2, 4-(2-Cyclopropyl-6-{6-[(1S)-1-{2-oxa-6-azaspiro[3.3]heptan-6-yl}ethyl]-1-oxo-3H-isoindol-2-yl}pyridin-4-yl)-3-(4-methyl-1,2,4-triazol-3-yl)benzonitrile]: the pIC50 in assay [1] and in assay [2] was ≥ 6.70 throughout.
